A short description of series [1]: Solubility of fenretinide in simulated saliva. Type of series: physicochemical. Particulars: pH 6.8. As for the experimental part: The extent of solubility enhancement of fenretinide by numerous solubilizers (bile salts, surfactants, hydrophilic polymers, and co-solvents) was studied by determining the solubility in simulated saliva in the presence of 0.5, 1, 2, and 5% w/v solubilizers. Briefly, an excess amount of fenretinide was added into separate amber color ampoules containing 1-mL 0.5, 1, 2, and 5% w/v solutions of solubilizers (prepared using N2-purged simulated saliva) and sealed under vacuum in order remove the oxygen from the head-space. The ampoules were then placed in an incubator maintained at 37° C. and shaken at 240 RPM for 72 h (this duration was determined to be sufficient to reach the equilibrium). After 72 h, the ampoules were broken, mixture was passed through 0.45 μm PVDF filter units (Millipore, USA), diluted suitably with respective solubilizer solution, and the amount of fenretinide solubilized in simulated saliva was determined by HPLC.

Series [2] concerns cellular terminal differentiation and apoptosis. As to conditions: cited from earlier work.
Series [3] in a line: Water solubility of fenretinide. Type of series: physicochemical.
The conditions of series [4]: cited from earlier work.
The nature of series [5]: Fenretinide solubility in bovine serum. Type of series: physicochemical. As to conditions: for time required to achieve equilibrium with bovine serum: 37° C. As for the experimental part:
Excessive amount of fenretinide was added into fetal bovine serum in polypropylene tubes. The sample was placed on a mechanical circulator and incubated at 37 C avoiding light. At every 24 hours (until fenretinide reached saturation in serum), the sample was centrifuged at 8000 rpm for 10 minutes. 0.2 ml sample was drawn from the supernatant. This volume was immediately replaced using blank serum. The tubes were shook to mix the supernatant and sediment, and then re-placed on the mechanical circulator and incubated at 37 C. The fenretinide concentration in the supernatant was measured by a HPLC assay after extraction using acetonitrile.
A known quantity (0.9, 2.26, 3.97, 8.03, and 20.5 mg) of fenretinide was added to polypropylene tubes containing 15 mL fetal bovine serum. The samples were incubated at 37° C. under constant rotation using a rigged rotator and protection from light. At every 24 h till 7 days, the samples were centrifuged at 8000 rpm for 10 minutes and 200 μl of supernatant was withdrawn. Withdrawn serum sample was replaced with fresh serum sample, mixed properly, and incubated again under similar conditions. To the withdrawn sample (200 μl), 2 mL of acetonitrile was added, agitated overnight on a mechanical shaker with protection from light, passed through 0.45 μm PVDF filter units, and analyzed by HPLC.

Values after ≈ are worked out from the molar mass of the structure shown.

What is called solubility is the concentration that dissolves in the medium under given conditions. A high value points to a readily soluble substance. `CC1=C(/C=C/C(C)=C/C=C/C(C)=C/C(=O)Nc2ccc(O)cc2)C(C)(C)CCC1` [Fenretinide, 4-hydroxy(phenyl)retinamide]: in series [1], the “solubility in simulated saliva” value was “insoluble”. For the same molecule, in series [2], the “in vitro concentration inducing apoptosis” value was greater than 5 µM and the “in vitro concentration inducing cellular terminal differentiation” value is less than 3 µM. Also, in series [3], the water solubility entry is “below HPLC detection limit”. The intrinsic aqueous solubility in series [4] was 0.0098 µg/mL. In addition, the “time required to achieve equilibrium with bovine serum” value in series [5] (0.9 mg fenretinide in 15 mL serum) was 7 days. Also, the “time required to achieve equilibrium with bovine serum” value in series [5] (8.03 mg fenretinide in 15 mL serum) stood at 4 days. Moreover, in series [5] (fetal bovine serum, 37° C. (Example 3, FIG. 10A)), the “solubility of fenretinide in bovine serum” value is 21 µg/mL. This molecule also displayed a solubility at 6 days in series [5] (plasma or biological fluid, thermodynamic from solid, fetal bovine serum, 37 C, after 6 days incubation (Example 2)) of 20.9 ± 1.02 µg/mL (≈ 53.5 µM). The same molecule yielded a solubility in series [5] (plasma or biological fluid, thermodynamic from solid, fetal bovine serum, 37° C. (Example 3, FIG. 10A)) of 21 ± 1 µg/mL (≈ 53.6 µM).

The record behind these values is patent publication US10758619B2, “Controlled release mucoadhesive systems” (THE OHIO STATE UNIVERSITY, priority 2010, dated 2020).
